# Results as given in patent US11147782B1, “GHB formulation and method for its manufacture” (JAZZ PHARMACEUTICALS IRELAND LIMITED, priority 2015, dated 2021).
# How the values were obtained:
# [1] = Xyrem solution is 500 mg/mL (42 wt %); solubility limit considerably higher; cited from earlier work
# [2] = Affinity for the exchange site of the anion exchange resin, estimated from pKa; type: physicochemical; conditions: estimated from pKa relative to other short-chain fatty acids
# Description: The affinity can be estimated based on the pKa of GHB (4.44) relative to other short-chain fatty acids for which affinities are known.
SMILES,solubility limit in water [1],affinity relative to chloride on the anion exchange resin [2]
"O=C(O)CCCO [sodium oxybate, Sodium oxybate]",> 500 mg/mL,
O=C(O)O [Bicarbonate],,about 27%
